Common to all, as to test: KINOMEscan
Format in all cases: binding
Conditions in all cases: read-out: % control activity remaining

One assay deals with T1, ARK5 (Homo sapiens, UniProt O60285).
T1 construct: purchased Eurofins DiscoverX KINOMEscan
T1 sequence (O60285 1-661): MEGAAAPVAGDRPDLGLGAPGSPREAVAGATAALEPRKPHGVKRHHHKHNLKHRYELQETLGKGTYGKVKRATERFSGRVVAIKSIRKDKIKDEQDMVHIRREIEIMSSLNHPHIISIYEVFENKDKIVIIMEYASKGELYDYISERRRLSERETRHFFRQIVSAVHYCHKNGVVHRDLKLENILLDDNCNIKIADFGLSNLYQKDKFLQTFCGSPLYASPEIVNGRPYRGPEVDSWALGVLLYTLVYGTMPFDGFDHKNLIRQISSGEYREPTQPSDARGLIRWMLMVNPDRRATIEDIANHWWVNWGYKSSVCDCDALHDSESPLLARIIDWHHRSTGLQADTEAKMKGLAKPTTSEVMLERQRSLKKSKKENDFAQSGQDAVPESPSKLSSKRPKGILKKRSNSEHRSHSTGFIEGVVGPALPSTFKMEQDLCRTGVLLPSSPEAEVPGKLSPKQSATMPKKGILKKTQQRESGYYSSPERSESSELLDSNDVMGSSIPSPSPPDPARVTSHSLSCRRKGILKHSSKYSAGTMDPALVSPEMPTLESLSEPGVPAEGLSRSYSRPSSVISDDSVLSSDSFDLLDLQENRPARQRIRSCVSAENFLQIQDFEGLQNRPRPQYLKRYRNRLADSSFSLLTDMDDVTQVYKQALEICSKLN

The next assay concerns the target T2, CSNK1A1L (Homo sapiens, UniProt Q8N752).
T2 construct: purchased Eurofins DiscoverX KINOMEscan
T2 sequence (Q8N752 1-337): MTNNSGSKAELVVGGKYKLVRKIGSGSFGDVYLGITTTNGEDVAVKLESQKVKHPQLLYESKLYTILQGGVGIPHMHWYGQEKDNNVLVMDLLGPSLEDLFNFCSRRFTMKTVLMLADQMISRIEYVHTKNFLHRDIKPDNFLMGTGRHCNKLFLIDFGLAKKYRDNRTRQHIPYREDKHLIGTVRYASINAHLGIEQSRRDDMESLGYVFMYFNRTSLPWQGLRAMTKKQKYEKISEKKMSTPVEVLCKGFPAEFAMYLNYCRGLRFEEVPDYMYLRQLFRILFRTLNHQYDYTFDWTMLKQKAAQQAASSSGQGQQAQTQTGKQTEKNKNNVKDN

The target in the next assay is T3, EIF2AK1 (Homo sapiens, UniProt Q9BQI3).
T3 construct: purchased Eurofins DiscoverX KINOMEscan
T3 sequence (Q9BQI3 whole entry): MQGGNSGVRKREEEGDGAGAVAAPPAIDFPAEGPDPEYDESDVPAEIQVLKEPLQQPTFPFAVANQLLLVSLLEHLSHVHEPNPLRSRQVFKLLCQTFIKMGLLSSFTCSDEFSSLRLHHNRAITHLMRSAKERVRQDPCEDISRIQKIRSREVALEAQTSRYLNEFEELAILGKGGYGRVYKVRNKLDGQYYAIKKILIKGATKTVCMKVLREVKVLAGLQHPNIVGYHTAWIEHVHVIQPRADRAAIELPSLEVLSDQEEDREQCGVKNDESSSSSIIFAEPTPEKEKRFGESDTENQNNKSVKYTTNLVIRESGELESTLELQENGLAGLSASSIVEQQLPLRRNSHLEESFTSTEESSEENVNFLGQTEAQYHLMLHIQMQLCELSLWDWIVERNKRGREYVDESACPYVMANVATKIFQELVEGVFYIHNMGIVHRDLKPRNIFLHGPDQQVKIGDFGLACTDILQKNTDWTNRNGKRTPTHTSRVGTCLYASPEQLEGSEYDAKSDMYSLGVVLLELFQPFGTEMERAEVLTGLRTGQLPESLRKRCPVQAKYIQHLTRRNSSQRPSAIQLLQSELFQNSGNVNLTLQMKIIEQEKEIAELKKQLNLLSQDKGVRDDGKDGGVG

Another assay deals with T4, FGFR4 (Homo sapiens, UniProt P22455).
T4 construct: purchased Eurofins DiscoverX KINOMEscan
T4 sequence (P22455 22-802): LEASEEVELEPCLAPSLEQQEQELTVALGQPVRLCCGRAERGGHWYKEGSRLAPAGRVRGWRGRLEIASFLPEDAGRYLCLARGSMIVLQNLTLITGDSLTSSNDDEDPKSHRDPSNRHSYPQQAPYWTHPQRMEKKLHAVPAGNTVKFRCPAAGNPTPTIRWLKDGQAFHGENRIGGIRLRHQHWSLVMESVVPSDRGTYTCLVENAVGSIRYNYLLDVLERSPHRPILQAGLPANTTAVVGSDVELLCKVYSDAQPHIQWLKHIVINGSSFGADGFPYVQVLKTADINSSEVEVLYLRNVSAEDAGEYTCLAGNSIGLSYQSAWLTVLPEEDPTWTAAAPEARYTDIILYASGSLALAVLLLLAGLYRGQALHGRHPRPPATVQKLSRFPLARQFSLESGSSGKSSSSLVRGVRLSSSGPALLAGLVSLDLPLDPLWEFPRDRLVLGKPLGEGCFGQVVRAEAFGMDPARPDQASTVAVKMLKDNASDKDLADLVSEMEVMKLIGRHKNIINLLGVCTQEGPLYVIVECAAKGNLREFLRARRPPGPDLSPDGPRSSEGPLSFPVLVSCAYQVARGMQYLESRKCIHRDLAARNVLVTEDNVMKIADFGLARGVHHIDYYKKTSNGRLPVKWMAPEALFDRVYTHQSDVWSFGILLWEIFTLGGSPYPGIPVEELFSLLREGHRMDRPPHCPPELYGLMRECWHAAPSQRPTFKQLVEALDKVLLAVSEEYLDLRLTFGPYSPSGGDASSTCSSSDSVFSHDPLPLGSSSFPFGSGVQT

A further assay has as its target T5, PKMYT1 (Homo sapiens, UniProt Q99640).
T5 construct: purchased Eurofins DiscoverX KINOMEscan
T5 sequence (Q99640 1-499): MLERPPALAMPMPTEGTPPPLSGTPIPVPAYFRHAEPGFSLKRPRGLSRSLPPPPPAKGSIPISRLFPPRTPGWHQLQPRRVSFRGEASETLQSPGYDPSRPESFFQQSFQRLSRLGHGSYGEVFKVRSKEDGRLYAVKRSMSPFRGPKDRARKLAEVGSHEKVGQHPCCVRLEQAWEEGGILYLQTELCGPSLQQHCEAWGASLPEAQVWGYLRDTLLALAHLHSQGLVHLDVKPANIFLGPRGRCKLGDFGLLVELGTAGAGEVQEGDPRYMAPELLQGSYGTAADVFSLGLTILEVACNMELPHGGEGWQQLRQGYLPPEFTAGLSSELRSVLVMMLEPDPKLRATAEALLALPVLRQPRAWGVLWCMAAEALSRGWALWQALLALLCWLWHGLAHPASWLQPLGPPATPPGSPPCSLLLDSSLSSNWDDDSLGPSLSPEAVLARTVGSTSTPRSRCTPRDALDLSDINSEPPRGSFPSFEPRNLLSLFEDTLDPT

The next assay deals with T6, QSK (Homo sapiens, UniProt Q9Y2K2).
T6 construct: purchased Eurofins DiscoverX KINOMEscan
T6 sequence (Q9Y2K2 whole entry): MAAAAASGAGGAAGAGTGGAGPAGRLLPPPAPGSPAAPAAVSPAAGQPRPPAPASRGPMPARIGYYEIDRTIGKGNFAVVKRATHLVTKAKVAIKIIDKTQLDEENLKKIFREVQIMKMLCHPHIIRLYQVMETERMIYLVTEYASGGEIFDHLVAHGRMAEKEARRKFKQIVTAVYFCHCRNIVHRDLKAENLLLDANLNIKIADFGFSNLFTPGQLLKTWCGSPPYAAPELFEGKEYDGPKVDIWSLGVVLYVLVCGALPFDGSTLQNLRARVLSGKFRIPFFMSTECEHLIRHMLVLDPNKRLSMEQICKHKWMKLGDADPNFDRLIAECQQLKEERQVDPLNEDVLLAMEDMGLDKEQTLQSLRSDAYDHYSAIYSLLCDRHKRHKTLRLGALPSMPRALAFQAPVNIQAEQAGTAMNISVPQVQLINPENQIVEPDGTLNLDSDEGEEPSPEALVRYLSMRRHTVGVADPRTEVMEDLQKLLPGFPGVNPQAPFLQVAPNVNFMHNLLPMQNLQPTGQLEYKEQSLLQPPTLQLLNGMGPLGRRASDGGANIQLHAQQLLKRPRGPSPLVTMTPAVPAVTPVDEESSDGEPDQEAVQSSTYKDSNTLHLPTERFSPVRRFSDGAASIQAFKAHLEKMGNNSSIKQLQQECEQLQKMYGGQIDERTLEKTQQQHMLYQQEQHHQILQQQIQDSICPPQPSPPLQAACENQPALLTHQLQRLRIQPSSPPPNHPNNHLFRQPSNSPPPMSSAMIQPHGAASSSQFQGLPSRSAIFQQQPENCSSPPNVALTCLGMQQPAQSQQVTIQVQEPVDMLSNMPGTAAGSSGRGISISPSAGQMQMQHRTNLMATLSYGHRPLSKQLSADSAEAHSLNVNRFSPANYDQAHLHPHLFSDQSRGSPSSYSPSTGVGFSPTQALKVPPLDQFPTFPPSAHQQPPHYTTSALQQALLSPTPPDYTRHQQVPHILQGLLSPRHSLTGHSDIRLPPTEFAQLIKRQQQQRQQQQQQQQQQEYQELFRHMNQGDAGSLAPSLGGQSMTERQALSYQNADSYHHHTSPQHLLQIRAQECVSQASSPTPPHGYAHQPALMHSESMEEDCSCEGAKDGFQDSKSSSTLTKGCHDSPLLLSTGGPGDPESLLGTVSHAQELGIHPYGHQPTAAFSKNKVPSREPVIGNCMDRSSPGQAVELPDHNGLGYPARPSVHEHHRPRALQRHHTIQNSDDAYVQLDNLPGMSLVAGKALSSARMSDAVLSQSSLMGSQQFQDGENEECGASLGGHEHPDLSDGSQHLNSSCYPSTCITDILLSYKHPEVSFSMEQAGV

The target of another assay is T7, TAOK3 (Homo sapiens, UniProt Q9H2K8).
T7 construct: purchased Eurofins DiscoverX KINOMEscan
T7 sequence (Q9H2K8 1-898): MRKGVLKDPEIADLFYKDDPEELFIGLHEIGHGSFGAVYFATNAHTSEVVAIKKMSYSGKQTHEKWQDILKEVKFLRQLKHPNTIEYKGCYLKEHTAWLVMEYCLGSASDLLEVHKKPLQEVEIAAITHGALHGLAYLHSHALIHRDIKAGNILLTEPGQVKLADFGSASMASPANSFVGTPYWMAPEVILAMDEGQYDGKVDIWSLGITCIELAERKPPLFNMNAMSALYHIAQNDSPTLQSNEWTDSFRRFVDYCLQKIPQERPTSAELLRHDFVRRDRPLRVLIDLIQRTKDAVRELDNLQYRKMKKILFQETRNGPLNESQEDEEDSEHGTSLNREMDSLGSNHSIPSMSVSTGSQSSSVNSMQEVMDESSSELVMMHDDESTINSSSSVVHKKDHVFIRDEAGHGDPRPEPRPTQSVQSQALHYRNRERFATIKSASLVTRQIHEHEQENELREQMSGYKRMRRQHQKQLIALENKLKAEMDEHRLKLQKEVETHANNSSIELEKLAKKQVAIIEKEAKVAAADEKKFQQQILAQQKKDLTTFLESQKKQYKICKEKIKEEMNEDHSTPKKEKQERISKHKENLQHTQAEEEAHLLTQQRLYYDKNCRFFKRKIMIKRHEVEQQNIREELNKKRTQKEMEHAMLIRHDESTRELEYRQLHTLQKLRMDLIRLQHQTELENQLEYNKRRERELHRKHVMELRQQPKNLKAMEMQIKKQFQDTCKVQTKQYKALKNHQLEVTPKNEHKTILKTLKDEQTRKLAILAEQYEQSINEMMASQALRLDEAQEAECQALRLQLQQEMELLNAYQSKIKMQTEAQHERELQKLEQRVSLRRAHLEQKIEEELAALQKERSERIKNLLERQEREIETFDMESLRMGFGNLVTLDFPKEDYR

In the case of `Clc1cc(NCC2CC2)c2ncc(-c3ccc4[nH]ncc4c3)n2n1` [compound 2, 6-Chloro-N-(cyclopropylmethyl)-3-(1H-indazol-5-yl)imidazo[1,2-b]pyridazin-8-amine], the remaining binding at 1 µM at ARK5 amounted to 99%; on CSNK1A1L it was 100%; at EIF2AK1, 100%; at FGFR4, 94%; on PKMYT1, 81%; on QSK it was 78%. On TAOK3, the remaining binding at 1 µM was 92%.

Consider `O=C(CN1CCOCC1)N[C@H]1CC[C@H](Nc2cc(Cl)nn3c(-c4ccc5[nH]ncc5c4)cnc23)CC1` [compound 26], for which the remaining binding at 1 µM came out at 100% at ARK5; 88% at CSNK1A1L; 78% at EIF2AK1; 99% at FGFR4; 94% at PKMYT1; 82% on QSK. Besides, the remaining binding at 1 µM on TAOK3 stood at 91%.

In the case of `CN1CCC(CNc2cc(Cl)nn3c(-c4cc5nc(Nc6ccccc6)[nH]c5cc4F)cnc23)CC1` [compound 31, 6-Chloro-3-(6-fluoro-2-(phenylamino)-1H-benzo[d]imidazol-5-yl)-N-((1-methylpiperidin-4-yl)methyl)imidazo[1,2-b]pyridazin-8-amine], the remaining binding at 1 µM is 100% at ARK5; 100% at CSNK1A1L; 78% on EIF2AK1; 98% at FGFR4; 100% on PKMYT1; 100% at QSK. Further, at TAOK3, the remaining binding at 1 µM stood at 77%.

For the origin of these results see paper PMC6437697 (Journal of Medicinal Chemistry, 2019).
